Experimental data: US9409952B2, “Peptide-compound cyclization method” (Chugai Seiyaku Kabushiki Kaisha, priority 2011, dated 2016)
Starred links: 1 amine or outer side, 2 acyl side, 3 side chain; linkers in the order of their positions; H or OH if unused. Positions of bridges follow the written chain, without caps; N, C: chain ends. Non-standard residues stand in square brackets, D forms with d. Residues, ends and D or L forms follow the SMILES beside them. *: point of attachment. NMeF = CN[C@@H](Cc1ccccc1)C(=O)O; NMeGABA = CN(CCCC(=O)[*:2])[*:1]; NMeβAla = CN(CCC(=O)[*:2])[*:1]; NMeL = CN[C@@H](CC(C)C)C(=O)O; NMeV = CN[C@H](C(=O)O)C(C)C; NMeA = CN[C@@H](C)C(=O)O; Piperidide = C1CCN(*)CC1; dNMeA = CN[C@H](C)C(=O)O; Sar = CNCC(=O)O

Assays:
[1] = Metabolic stability in human hepatic microsome; assay type: in vitro ADME; conditions: microsomes, pH 7.4; human hepatic microsome, NADPH(+); read-out: CL NADPH(+)
[2] = PAMPA (parallel artificial membrane permeability assay); assay type: in vitro ADME; conditions: PAMPA; membrane permeation rate (Pe); 50 mM MOPSO buffer pH 6.5 with 5.0% glycocholic acid, 37° C., 18 hours; read-out: iPAMPA Pe
In short: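 Artificial membrane was 10% (w/v) egg lecithin plus 0.5% (w/v) cholesterol in dodecane on a PVDF filter. A 10 mM DMSO stock was added at 0.5% (v/v) to donor buffer (50 mM MOPSO, pH 6.5, 5.0% glycocholic acid). After 18 h at 37 °C, LC/MS or LC/UV gave donor and acceptor levels for Pe.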

| Structure (SMILES) | microsomal CLint at 1 uM [1] [µL/min/mg] | Papp at 18 hours, 50 µM [2] [×10⁻⁶ cm/s] |
| --- | --- | --- |
| CC(C)C[C@H]1C(=O)N[C@@H](C)C(=O)N(C)[C@@H](Cc2ccccc2)C(=O)N(C)[C@@H](C(C)C)C(=O)N[C@@H](C)C(=O)N(C)[C@@H](C)C(=O)N[C@H](C(=O)N(C)[C@@H](Cc2ccccc2)C(=O)N[C@@H](C)C(=O)N2CCCCC2)CC(=O)N(C)[C@@H](C)C(=O)N(C)[C@@H](Cc2ccccc2)C(=O)N[C@@H]([C@@H](C)O)C(=O)N(C)[C@@H](C)C(=O)N1C [DP-367] ([NMeA][NMeF]T[NMeA][NMeL]A[NMeF][NMeV]A[NMeA]D[NMeF]A-Piperidide; lactam N-11) | 17 | 12 |
| CC(C)C[C@H]1C(=O)N(C)[C@@H](C)C(=O)N[C@@H](C)C(=O)N(C)[C@@H](C)C(=O)N(C)[C@@H](Cc2ccccc2)C(=O)N(C)[C@@H](C)C(=O)N[C@@H]([C@@H](C)O)C(=O)N(C)[C@@H](C)C(=O)N(C)[C@@H](C)C(=O)N[C@H](C(=O)N(C)[C@@H](Cc2ccccc2)C(=O)N[C@@H](C)C(=O)N2CCCCC2)CC(=O)N(C)[C@@H](C)C(=O)N1C [DP-368] ([NMeA][NMeL][NMeA]A[NMeA][NMeF][NMeA]T[NMeA][NMeA]D[NMeF]A-Piperidide; lactam N-11) | 6 | 1.6 |
| CC(C)C[C@H]1C(=O)N[C@@H]([C@@H](C)O)C(=O)N(C)[C@@H](C)C(=O)N[C@H](C(=O)N(C)[C@@H](Cc2ccccc2)C(=O)N[C@@H](C)C(=O)N2CCCCC2)CC(=O)N(C)CCC(=O)N(C)[C@@H](C(C)C)C(=O)N(C)[C@@H](Cc2ccccc2)C(=O)N(C)[C@@H](Cc2ccccc2)C(=O)N[C@@H](C)C(=O)N(C)[C@@H](C)C(=O)N1C [DP-370] ([NMeβAla][NMeV][NMeF][NMeF]A[NMeA][NMeL]T[NMeA]D[NMeF]A-Piperidide; lactam N-10) | 36 | 25 |
| CC[C@H](C)[C@@H]1NC(=O)CN(C)C(=O)[C@H](Cc2ccccc2)N(C)C(=O)[C@H](C)N(C)C(=O)[C@H]([C@@H](C)O)NC(=O)[C@H](CC(C)C)N(C)C(=O)[C@@H](C)N(C)C(=O)C[C@@H](C(=O)N(C)[C@@H](Cc2ccccc2)C(=O)N[C@@H](C)C(=O)N2CCCCC2)NC(=O)[C@H](C(C)C)N(C)C(=O)[C@H](CC(C)C)N(C)C1=O [DP-371] ([dNMeA][NMeL]T[NMeA][NMeF][Sar]I[NMeL][NMeV]D[NMeF]A-Piperidide; lactam N-10) | 31 | 34 |
| CC(C)C[C@H]1C(=O)N(C)[C@@H](C(C)C)C(=O)N[C@@H](Cc2ccccc2)C(=O)N[C@H](C(=O)N(C)[C@@H](Cc2ccccc2)C(=O)N[C@@H](C)C(=O)N2CCCCC2)CC(=O)N(C)CCCC(=O)N[C@@H](C(C)C)C(=O)N(C)[C@@H](CC(C)C)C(=O)N[C@@H]([C@@H](C)O)C(=O)N(C)[C@@H](Cc2ccccc2)C(=O)NCC(=O)N1C [DP-372] ([NMeGABA]V[NMeL]T[NMeF]G[NMeL][NMeV]FD[NMeF]A-Piperidide; lactam N-10) | 78 | 42 |
| CC[C@H](C)[C@@H]1NC(=O)CN(C)C(=O)[C@H](Cc2ccccc2)N(C)C(=O)[C@H]([C@@H](C)O)NC(=O)[C@H](CC(C)C)N(C)C(=O)[C@H](C)N(C)C(=O)CCCN(C)C(=O)C[C@@H](C(=O)N(C)[C@@H](Cc2ccccc2)C(=O)N[C@@H](C)C(=O)N2CCCCC2)NC(=O)[C@H](C(C)C)N(C)C(=O)[C@H](CC(C)C)N(C)C1=O [DP-374] ([NMeGABA][NMeA][NMeL]T[NMeF][Sar]I[NMeL][NMeV]D[NMeF]A-Piperidide; lactam N-10) | 53 | 24 |
| CC(C)C[C@H]1C(=O)N[C@@H](Cc2ccccc2)C(=O)N(C)[C@@H](C(C)C)C(=O)N(C)[C@@H](C)C(=O)N(C)[C@@H](Cc2ccccc2)C(=O)N[C@@H]([C@@H](C)O)C(=O)NCC(=O)N[C@H](C(=O)N(C)[C@@H](Cc2ccccc2)C(=O)N[C@@H](C)C(=O)N2CCCCC2)CC(=O)N(C)[C@@H](C)C(=O)N[C@@H](C)C(=O)N1C [DP-375] ([NMeA]A[NMeL]F[NMeV][NMeA][NMeF]TGD[NMeF]A-Piperidide; lactam N-10) | 39 | 19 |
| CC(C)C[C@H]1C(=O)N(C)[C@@H](C)C(=O)N[C@H](C(=O)N(C)[C@@H](Cc2ccccc2)C(=O)N[C@@H](C)C(=O)N2CCCCC2)CC(=O)N(C)[C@@H](C)C(=O)N(C)[C@@H](C)C(=O)N(C)[C@@H](Cc2ccccc2)C(=O)N[C@@H]([C@@H](C)O)C(=O)N(C)[C@@H](C)C(=O)N(C)[C@@H](Cc2ccccc2)C(=O)N[C@@H](C)C(=O)N1C [DP-377] ([NMeA][NMeA][NMeF]T[NMeA][NMeF]A[NMeL][NMeA]D[NMeF]A-Piperidide; lactam N-10) | 70 | 23 |
| CC(C)C[C@H]1C(=O)NCC(=O)N[C@H](C(=O)N(C)[C@@H](Cc2ccccc2)C(=O)N[C@@H](C)C(=O)N2CCCCC2)CC(=O)N[C@@H](C)C(=O)N[C@@H]([C@@H](C)O)C(=O)N(C)[C@@H](C)C(=O)N(C)[C@@H](Cc2ccccc2)C(=O)N[C@@H](C(C)C)C(=O)N(C)[C@@H](Cc2ccccc2)C(=O)N1C [DP-378] (AT[NMeA][NMeF]V[NMeF][NMeL]GD[NMeF]A-Piperidide; lactam N-9) | 219 | 31 |
| CC(C)C[C@H]1C(=O)N[C@H](C(=O)N(C)[C@@H](Cc2ccccc2)C(=O)N[C@@H](C)C(=O)N2CCCCC2)CC(=O)N(C)CCC(=O)N[C@@H]([C@@H](C)O)C(=O)N(C)[C@@H](C)C(=O)N(C)[C@@H](CC(C)C)C(=O)N[C@@H](C(C)C)C(=O)N(C)[C@@H](Cc2ccccc2)C(=O)N[C@@H](Cc2ccccc2)C(=O)N1C [DP-379] ([NMeβAla]T[NMeA][NMeL]V[NMeF]F[NMeL]D[NMeF]A-Piperidide; lactam N-9) | 236 | 41 |
| CC(C)C[C@H]1C(=O)N[C@@H](C(C)C)C(=O)N[C@H](C(=O)N(C)[C@@H](Cc2ccccc2)C(=O)N[C@@H](C)C(=O)N2CCCCC2)CC(=O)N[C@H](C)C(=O)N(C)[C@@H](C)C(=O)N(C)[C@@H](Cc2ccccc2)C(=O)N(C)[C@@H](CC(C)C)C(=O)N[C@@H]([C@@H](C)O)C(=O)N(C)CC(=O)N1C [DP-380] ([dA][NMeA][NMeF][NMeL]T[Sar][NMeL]VD[NMeF]A-Piperidide; lactam N-9) | 58 | 17 |
| CC(C)C[C@H]1C(=O)N[C@H](C(=O)N(C)[C@@H](Cc2ccccc2)C(=O)N[C@@H](C)C(=O)N2CCCCC2)CC(=O)N(C)[C@H](C)C(=O)N(C)[C@@H](CC(C)C)C(=O)N(C)[C@@H](C)C(=O)N[C@@H]([C@@H](C)O)C(=O)N[C@@H](Cc2ccccc2)C(=O)N(C)[C@@H](Cc2ccccc2)C(=O)N[C@@H](C(C)C)C(=O)N1C [DP-381] ([dNMeA][NMeL][NMeA]TF[NMeF]V[NMeL]D[NMeF]A-Piperidide; lactam N-9) | 84 | 45 |
| CC(C)C[C@H]1C(=O)NCC(=O)N[C@H](C(=O)N(C)[C@@H](Cc2ccccc2)C(=O)N[C@@H](C)C(=O)N2CCCCC2)CC(=O)N[C@H](C(C)C)C(=O)N[C@@H]([C@@H](C)O)C(=O)N(C)[C@@H](C)C(=O)N(C)[C@@H](Cc2ccccc2)C(=O)N[C@@H](C(C)C)C(=O)N(C)[C@@H](Cc2ccccc2)C(=O)N1C [DP-382] ([dV]T[NMeA][NMeF]V[NMeF][NMeL]GD[NMeF]A-Piperidide; lactam N-9) | 188 | 49 |
| CC(C)C[C@H]1C(=O)N[C@@H](Cc2ccccc2)C(=O)N[C@H](C(=O)N(C)[C@@H](Cc2ccccc2)C(=O)N[C@@H](C)C(=O)N2CCCCC2)CC(=O)N(C)CCCC(=O)N[C@@H]([C@@H](C)O)C(=O)N(C)CC(=O)N(C)[C@@H](C)C(=O)N[C@@H](C(C)C)C(=O)N(C)[C@@H](Cc2ccccc2)C(=O)N1C [DP-383] ([NMeGABA]T[Sar][NMeA]V[NMeF][NMeL]FD[NMeF]A-Piperidide; lactam N-9) | 138 | 14 |
| CC[C@H](C)[C@@H]1NC(=O)[C@H](C)N(C)C(=O)[C@H]([C@@H](C)O)NC(=O)[C@H](Cc2ccccc2)N(C)C(=O)[C@H](CC(C)C)N(C)C(=O)CCCN(C)C(=O)C[C@@H](C(=O)N(C)[C@@H](Cc2ccccc2)C(=O)N[C@@H](C)C(=O)N2CCCCC2)NC(=O)[C@H](C(C)C)N(C)C(=O)[C@H](CC(C)C)N(C)C1=O [DP-384] ([NMeGABA][NMeL][NMeF]T[NMeA]I[NMeL][NMeV]D[NMeF]A-Piperidide; lactam N-9) | 214 | 26 |
| CC(C)C[C@H]1C(=O)N[C@H](C(=O)N(C)[C@@H](Cc2ccccc2)C(=O)N[C@@H](C)C(=O)N2CCCCC2)CC(=O)N(C)CCCC(=O)N[C@@H](C(C)C)C(=O)N(C)[C@@H](Cc2ccccc2)C(=O)N(C)[C@@H](CC(C)C)C(=O)N[C@@H]([C@@H](C)O)C(=O)N(C)[C@@H](C)C(=O)N(C)CC(=O)N1C [DP-385] ([NMeGABA]V[NMeF][NMeL]T[NMeA][Sar][NMeL]D[NMeF]A-Piperidide; lactam N-9) | 102 | 18 |
| CC(C)C[C@H]1C(=O)N[C@H](C(=O)N(C)[C@@H](Cc2ccccc2)C(=O)N[C@@H](C)C(=O)N2CCCCC2)CC(=O)N(C)[C@@H](C)C(=O)N[C@@H]([C@@H](C)O)C(=O)N(C)[C@@H](C)C(=O)N(C)[C@@H](CC(C)C)C(=O)N[C@@H](C(C)C)C(=O)N(C)[C@@H](Cc2ccccc2)C(=O)N[C@@H](Cc2ccccc2)C(=O)N1C [DP-386] ([NMeA]T[NMeA][NMeL]V[NMeF]F[NMeL]D[NMeF]A-Piperidide; lactam N-9) | 222 | 54 |
